Earlier results as cited in PMC4704022, “Insights on FXR selective modulation. Speculation on bile acid chemical space in the discovery of potent and selective agonists” (Scientific Reports, 2016).

Tests used:
FXR [1] = test system: FXR; set-up: method as in PMID 10360171; conditions: cited from earlier work
OSTα expression = test system: OSTα expression; set-up: method as in PMID 25247751; conditions: compared with 6-ECDCA; cited from earlier work
FXR [2] = test system: FXR; set-up: method as in PMID 25247751; conditions: read-out: EC50, FXR transactivation; cited from earlier work

C[C@H](CCC(=O)O)[C@H]1CC[C@H]2[C@@H]3CC[C@@H]4C[C@H](O)CC[C@]4(C)[C@H]3CC[C@]12C [lithocholic acid]
FXR ligand strength relative to CDCA (in words) (FXR [1]): weaker natural ligands

C[C@H](CCCOS(=O)(=O)O)[C@H]1CCC2C3C(CC[C@@]21C)[C@@]1(C)CCCC[C@H]1C[C@H]3O (stereo partly drawn) [compound 5, 7α-hydroxy-5β-cholan-24-sulfate]
Potency in inducing expression of OSTα (in words) (OSTα expression): comparable to that of 6-ECDCA | EC50 (FXR [2]): ~9 µM
